Assay results reported in patent US20060189608A1, “Methods for treating ocular angiogenesis, retinal edema, retinal ischemia, and diabetic retinopathy using selective RTK inhibitors” (Alcon, Inc., priority 2005, published 2006).

Columns and labels:
FYN = FYN (Homo sapiens, UniProt P06241); test: Kinase inhibition profile, non-related TK; format: biochemical; settings: ATP concentration of 1 nM
[1] = Pilot intraocular safety study, single intravitreal injection, adult rat; format: in vivo; settings: single intravitreal injection of 0.1 and 1.0%, up to 1 month postinjection
Excerpt: Outcome measures were followed up to 1 month postinjection and involved clinical (fundus photography & indirect ophthalmoscopy), functional (electroretinography), and morphologic (histopathology) methods.

IGFR = IGFR (Homo sapiens, UniProt P08069); test: Kinase inhibition profile, non-related TK; format: biochemical; settings: ATP concentration of 1 nM
[2] = system: laser-induced choroidal neovascularization (CNV); test: Laser-induced CNV, oral gavage, prevention paradigm, mouse; format: in vivo; settings: for inhibition of CNV: prevention paradigm; for Mean CNV / Median CNV: prevention
Method: (§1) Methods. CNV was generated by laser-induced rupture of Bruch's membrane. Briefly, 4 to 5 week old male C57BL/6J mice were anesthetized using intraperitoneal administration of ketamine hydrochloride (100 mg/kg) and xylazine (5 mg/kg) and the pupils of both eyes dilated with topical ocular instillation of 1% tropicamide and 2.5% Mydfin®. One drop of topical cellulose (Gonioscopic®) was used to lubricate the cornea. A hand-held cover slip was applied to the cornea and used as a contact lens to aid visualization of the fundus. Three to four retinal burns were placed in randomly assigned eye (right or left eye for each mouse) using the Alcon 532 nm EyeLite laser with a slit 5 lamp delivery system. The laser burns were used to generate a rupture in Bruch's membrane, which was indicated ophthalmoscopically by the formation of a bubble under the retina. Only mice with laser burns that produced three bubbles per eye were included in the study. Bums were typically placed at the 3, 6, 9 or 12 o'clock positions in the posterior pole of the retina, avoiding the branch retinal arteries and veins.
(§2) Each mouse was randomly assigned into one of the following treatment groups: noninjected controls, sham-injected controls, vehicle-injected mice, or one of three RTKi-injected groups. Control mice received laser photocoagulation in both eyes, where one eye received a sham injection, i.e. a pars plana needle puncture. […] The intravitreal injection was performed immediately after laser photocoagulation. At 14 days post-laser, all mice were anesthetized and systemically perfused with fluorescein-labeled dextran. Eyes were then harvested and prepared as choroidal flat mounts with the RPE side oriented towards the observer. All choroidal flat mounts were examined using a fluorescent microscope. Digital images of the CNV were captured, where the CNV was identified as areas of hyperfluorescence within the pigmented background. Computerized image analysis was used to delineate and measure the two dimensional area of the hyperfluorescent CNV per lesion (um^2) for the outcome measurement. The median CNV area/burn per mouse per treatment group or the mean CNV area/burn per treatment group was used for statistical analysis depending on the normality of data distribution; P≦0.05 was considered significant.
METHODS: CNV was generated by laser-induced rupture of Bruch's membrane as described in Example 3 above. […] The mice received an oral gavage of 0, 1.5, 5, or 10 mg/kg twice per day and for 14 days post-laser. […] Oral gavage dosing was continued twice per day for 14 days post-laser. Several mice were Is euthanized at day 7 post-laser and used for controls. At 14 days post-laser, all mice were anesthetized and systemically perfused with fluorescein-labeled dextran. Eyes were then harvested and prepared as choroidal flat mounts as described in Example 3 above.

[3] = system: VEGF-induced retinal vascular permeability; test: VEGF-induced retinal vascular permeability, intravitreal injection, rat; format: in vivo, Sprague-Dawley rats; settings: 10 μl intravitreal
Method: METHODS: Adult Sprague-Dawley rats were anesthetized with intramuscular ketamine/xylazine and their pupils dilated with topical cycloplegics. […] Ten μl of each compound was intravitreally injected in each treatment eye (n=6 eyes per group). Three days following first intravitreal injection, all animals received an intravitreal injection of 10 μl 400 ng hr VEGF in both eyes. Twenty-four hours post-injection of VEGF, intravenous infusion of 3% Evans blue dye was performed in all animals, where 50 mg/kg of Evans blue dye was injected via the lateral tail vein during general anesthesia. After the dye had circulated for 90 minutes, the rats were euthanized. The rats were then systemically perfused with balanced salt solution, and then both eyes of each rat were immediately enucleated and the retinas harvested using a surgical microscope. After measurement of the retinal wet weight, the Evans blue dye was extracted by placing the retina in a 0.2 ml formamide (Sigma) and then the homogenized and ultracentrifuged. Blood samples were centrifuged and the plasma diluted 100 fold in formamide. For both retina and plasma samples, 60 μl of supernatant was used to measure the Evans blue dye absorbance (ABS) with at 620/740 nm. The blood-retinal barrier breakdown and subsequent retinal vascular permeability as measured by dye absorbance were calculated as means±s.e.m. of net ABS/wet weight/plasma ABS. A two-tailed Student's t-test was used for pair wise comparisons between OS and OD eyes in each group. One way ANOVA was used to determine an overall difference between treatment means, where P≦0.05 was considered significant.

[4] = system: laser-induced choroidal neovascularization (CNV); test: Prevention of laser-induced CNV, intravitreal injection, mouse; format: in vivo, C57BL/6J mice; settings: for inhibition of CNV as compared to vehicle-injected eyes: 5 ul intravitreal immediately after laser, 14 days post-laser
Method: as §1, §2

[5] = system: diabetes-induced retinal vascular permeability; test: Diabetes-induced retinal vascular permeability, oral gavage, STZ rat model
Method: METHODS: Diabetes was induced in male Long-Evans rats with 65 mg/kg streptozotocin (STZ) after an overnight fast. […] After 2 weeks, jugular vein catheters were implanted 1 day prior to experimentation for the infusion of indicator dye. Retinal vascular permeability, RVP, was measured using Evan's blue albumin permeation (45 mg/kg) after a 2 hour circulation period.

Chain of IGFR (P08069 31-1367): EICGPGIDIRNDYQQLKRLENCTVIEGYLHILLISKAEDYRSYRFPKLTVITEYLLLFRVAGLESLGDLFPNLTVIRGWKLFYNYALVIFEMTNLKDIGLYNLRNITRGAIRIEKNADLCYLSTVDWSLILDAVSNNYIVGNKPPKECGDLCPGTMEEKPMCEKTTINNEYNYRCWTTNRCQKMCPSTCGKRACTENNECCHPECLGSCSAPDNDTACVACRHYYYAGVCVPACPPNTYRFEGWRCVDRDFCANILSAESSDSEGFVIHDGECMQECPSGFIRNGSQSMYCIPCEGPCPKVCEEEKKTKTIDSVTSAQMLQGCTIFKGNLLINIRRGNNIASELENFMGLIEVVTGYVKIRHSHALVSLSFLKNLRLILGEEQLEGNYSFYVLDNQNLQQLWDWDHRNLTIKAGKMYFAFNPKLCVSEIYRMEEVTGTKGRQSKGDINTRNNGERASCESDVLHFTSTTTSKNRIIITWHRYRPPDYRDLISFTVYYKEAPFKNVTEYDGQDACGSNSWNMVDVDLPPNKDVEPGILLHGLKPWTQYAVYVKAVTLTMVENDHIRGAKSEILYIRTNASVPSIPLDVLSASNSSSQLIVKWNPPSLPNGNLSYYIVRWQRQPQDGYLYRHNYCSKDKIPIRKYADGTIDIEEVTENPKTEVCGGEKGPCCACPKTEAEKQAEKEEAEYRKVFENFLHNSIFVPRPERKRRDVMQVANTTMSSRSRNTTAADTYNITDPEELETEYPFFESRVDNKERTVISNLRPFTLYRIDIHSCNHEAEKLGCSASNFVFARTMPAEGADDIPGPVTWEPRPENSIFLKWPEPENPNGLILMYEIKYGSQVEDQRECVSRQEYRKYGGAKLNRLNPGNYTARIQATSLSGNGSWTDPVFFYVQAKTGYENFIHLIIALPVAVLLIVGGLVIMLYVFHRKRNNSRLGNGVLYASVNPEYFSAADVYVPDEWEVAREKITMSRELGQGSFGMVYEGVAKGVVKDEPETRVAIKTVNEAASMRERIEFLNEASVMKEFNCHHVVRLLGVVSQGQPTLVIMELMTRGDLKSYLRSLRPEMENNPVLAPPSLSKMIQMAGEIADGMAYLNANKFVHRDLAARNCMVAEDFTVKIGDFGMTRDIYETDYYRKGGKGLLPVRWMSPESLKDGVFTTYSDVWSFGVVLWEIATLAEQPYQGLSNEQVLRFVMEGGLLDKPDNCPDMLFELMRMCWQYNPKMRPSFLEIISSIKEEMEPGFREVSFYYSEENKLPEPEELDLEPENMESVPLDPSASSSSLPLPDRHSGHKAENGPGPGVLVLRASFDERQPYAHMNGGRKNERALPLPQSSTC
Chain of FYN (P06241 whole entry): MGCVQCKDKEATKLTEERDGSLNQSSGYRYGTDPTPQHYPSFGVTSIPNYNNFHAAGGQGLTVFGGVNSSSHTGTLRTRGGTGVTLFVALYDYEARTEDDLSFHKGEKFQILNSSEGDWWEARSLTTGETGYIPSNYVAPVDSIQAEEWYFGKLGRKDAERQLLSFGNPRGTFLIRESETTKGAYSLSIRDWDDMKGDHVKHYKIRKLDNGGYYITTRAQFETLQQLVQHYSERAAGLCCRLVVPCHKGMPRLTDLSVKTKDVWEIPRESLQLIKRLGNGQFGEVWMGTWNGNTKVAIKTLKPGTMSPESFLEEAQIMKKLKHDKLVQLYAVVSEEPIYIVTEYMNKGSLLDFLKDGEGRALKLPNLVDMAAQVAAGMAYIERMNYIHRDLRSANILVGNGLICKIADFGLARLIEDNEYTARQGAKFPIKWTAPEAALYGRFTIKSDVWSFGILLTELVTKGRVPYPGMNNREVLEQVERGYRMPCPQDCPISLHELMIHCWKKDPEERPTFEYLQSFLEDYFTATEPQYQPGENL

Cc1ccc(F)c(NC(=O)Nc2ccc(-c3cccc4[nH]nc(N)c34)cc2)c1 [AL-39324, N-[4-[3-amino-1H-indazol-4-yl)phenyl]-N′-(2-fluoro-5-methylphenyl)urea]
IC50 (FYN): > 50 µM
adverse events (fundus, electroretinography, histopathology) [1]: No significant adverse events
IC50 (IGFR): > 50 µM
inhibition of CNV ([2]; 3 mg/kg/day oral gavage): no significant inhibition
Mean CNV ([2]; 3 mg/kg/day oral): 21670 μm^2
Median CNV ([2]; 3 mg/kg/day oral): 22317 μm^2
inhibition of CNV ([2]; 10 mg/kg/day oral gavage): 84.3%
Mean CNV ([2]; 10 mg/kg/day oral): 4046 μm^2
Median CNV ([2]; 10 mg/kg/day oral): 4137 μm^2
inhibition of CNV ([2]; 20 mg/kg/d oral gavage): complete inhibition of CNV
Mean CNV ([2]; 20 mg/kg/day oral): 3266 μm^2
Median CNV ([2]; 20 mg/kg/day oral): 0 μm^2
decrease of retinal vascular permeability as compared to vehicle-injected eyes ([3]; 0.3%): 50%
mean ABS±s.e.m. (net ABS/wet weight/plasma ABS, Evans blue) ([3]; 0.3%): 4.84±0.64
decrease of retinal vascular permeability as compared to vehicle-injected eyes ([3]; 1.0%): 61%
mean ABS±s.e.m. (net ABS/wet weight/plasma ABS, Evans blue) ([3]; 1.0%): 3.87±0.62
decrease of retinal vascular permeability as compared to vehicle-injected eyes ([3]; 3%): 53%
mean ABS±s.e.m. (net ABS/wet weight/plasma ABS, Evans blue) ([3]; 3.0%): 4.75±0.40
CNV versus vehicle injected eyes ([4]; 0.3%, 5 ul intravitreal): marginal statistical difference
mean±s.d. CNV area/burn per mouse ([4]; 0.3%, 5 ul intravitreal): 44283±28886 um^2
median CNV area/burn per mouse ([4]; 0.3%, 5 ul intravitreal): 38891 um^2
mean±s.d. CNV area/burn per mouse ([4]; 1%, 5 ul intravitreal): 21036±3100 um^2
median CNV area/burn per mouse ([4]; 1%, 5 ul intravitreal): 21122 um^2
inhibition of CNV as compared to vehicle-injected eyes ([4]; 1%): 84.1%
mean±s.d. CNV area/burn per mouse ([4]; 3%, 5 ul intravitreal): 27288±12109 um^2
median CNV area/burn per mouse ([4]; 3%, 5 ul intravitreal): 22665 um^2
inhibition of CNV as compared to vehicle-injected eyes ([4]; 3%): 83.0%
RVP ([5]; NDM treated at 5 mg/kg/d): unchanged
Blood glucose levels and body weights, DM control vs DM treatment groups ([5]; oral, DM rats): not different
tolerability, systemic or ERG side effects ([5]; oral, NDM and DM groups): well tolerated by both NDM and DM groups with no observed systemic or ERG side effects
